Assay results reported in US20110165660A1, “ENGINEERED MICROORGANISMS WITH ENHANCED FERMENTATION ACTIVITY” (VERDEZYNE, INC., priority 2009, published 2011).
Numbering of substitutions follows the chain as printed. In names and notes the source's numbering stands.

Tests used:
[1] = biological target: S. cerevisiae ZWF1 variant A51D (mutant 4) (Saccharomyces cerevisiae, UniProt P11412, A51D); assay: Cofactor preference of ZWF1 mutants (NAD+ vs NADP+); format: biochemical; details: initial kinetic screening, preliminary cofactor phenotype
Chain of S. cerevisiae ZWF1 variant A51D (mutant 4) (P11412 whole entry A51D): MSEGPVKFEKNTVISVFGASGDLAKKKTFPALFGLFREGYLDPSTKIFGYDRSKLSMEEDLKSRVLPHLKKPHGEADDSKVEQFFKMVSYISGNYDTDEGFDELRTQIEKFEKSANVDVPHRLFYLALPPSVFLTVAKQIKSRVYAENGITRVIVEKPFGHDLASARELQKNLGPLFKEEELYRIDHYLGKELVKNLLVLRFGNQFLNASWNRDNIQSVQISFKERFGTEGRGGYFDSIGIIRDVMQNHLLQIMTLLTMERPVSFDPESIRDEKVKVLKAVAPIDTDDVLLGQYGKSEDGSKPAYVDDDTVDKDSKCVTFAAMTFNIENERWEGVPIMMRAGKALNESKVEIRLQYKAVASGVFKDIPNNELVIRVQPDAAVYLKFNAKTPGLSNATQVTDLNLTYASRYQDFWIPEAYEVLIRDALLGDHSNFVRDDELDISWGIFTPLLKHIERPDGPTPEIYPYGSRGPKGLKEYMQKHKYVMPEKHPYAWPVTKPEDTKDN
Procedure: (§1) Strain BY4742 zwf1 (ATCC Cat. No. 4011971; Winzeler E A, et al. Science 285: 901-906, 1999. PubMed: 10436161) was used as the base strain for all ZWF1 assays. The assays were performed as follows: A 5 ml overnight of the strain expressing the ZWF1 gene was grown in SCD-ura. A 50 ml culture of the strain was then grown for about 18 hours from an initial OD600 of about 0.2 until it had reached about OD600 of about 4. The cells were centrifuged at 1046×g washed twice with 25 ml cold sterile water, and resuspended in 2 ml/g Yper Plus (Thermo Scientific) plus 1×protease inhibitors (EDTA-free). The cells were allowed to lyse at room temperature for about 30 minutes with constant rotation of the tubes. The lysate was centrifuged at 16,100×g for 10 minutes at 4° C. and the supernatants were transferred to a new 1.5 ml microcentrifuge tube. Quantification of the lysates was performed using the Coomassie-Plus kit (Thermo Scientific, San Diego, Calif.) as directed by the manufacturer.
(§2) The reaction was started with 20 mM glucose-6-phosphate and the reaction was monitored at A340. The specific activity was measured as the μmol substrate/min/mg protein.
Site-directed mutagenesis was used to alter of ZWF1 so that the altered ZWF1 could also utilize NAD+, thereby improving the REDOX balance within the cell. […]

[2] = biological target: S. cerevisiae ZWF1 (glucose-6-phosphate dehydrogenase) variant A51N (mutant 3) (Saccharomyces cerevisiae, UniProt P11412, A51N); assay: Cofactor usage of ZWF1 mutants (initial kinetic screening, NAD+ vs NADP+); format: biochemical; details: preliminary cofactor phenotype
Chain of S. cerevisiae ZWF1 (glucose-6-phosphate dehydrogenase) variant A51N (mutant 3) (P11412 whole entry A51N): as the sequence (P11412 whole entry A51D) above, with D51N counted along it
Procedure: as §1, §2
(§3) Site directed mutagenesis reactions were performed in the same manner for all mutations, and for mutants which include more than one mutation, each mutation was performed sequentially. About 50 ng of plasmid DNA was added to 1×Pfu Ultra II buffer, 0.3 mM dNTPs, […] site directed mutagenesis specific primers, and 1 U Pfu Ultra II polymerase (Agilent, La Jolla, Calif.) in a 50 μl reaction mix. The reaction was cycled at 95° C. for 10 minutes, followed by 15 rounds of 95° C. for 15 seconds, 55° C. for 40 seconds, and 72° C. for 3 minutes. A final 10 minute extension reaction at 72° C. was also included. The PCR reaction mixture was then digested with 30 U of Dpnl for about 2 hours and 5 μl of the digested PCR reaction mixture was used to transform competent DH5α (Zymo Research, Orange, Calif.) and plated onto LB plates containing the appropriate antibiotics. The table below lists mutants generated in a first round of mutagenesis.

[3] = biological target: S. cerevisiae ZWF1 (glucose-6-phosphate dehydrogenase) variant T28F (mutant 5) (Saccharomyces cerevisiae, UniProt P11412, T28F); assay: as above; format: biochemical; details: preliminary cofactor phenotype
Chain of S. cerevisiae ZWF1 (glucose-6-phosphate dehydrogenase) variant T28F (mutant 5) (P11412 whole entry T28F): as the sequence (P11412 whole entry A51D) above, with T28F, D51A counted along it
Procedure: as §1, §2, §3

[4] = biological target: S. cerevisiae ZWF1 (glucose-6-phosphate dehydrogenase) variant F33Y (mutant 8) (Saccharomyces cerevisiae, UniProt P11412, F33Y); assay: as above; format: biochemical; details: preliminary cofactor phenotype
Chain of S. cerevisiae ZWF1 (glucose-6-phosphate dehydrogenase) variant F33Y (mutant 8) (P11412 whole entry F33Y): as the sequence (P11412 whole entry A51D) above, with F33Y, D51A counted along it
Procedure: as §1, §2, §3

[5] = biological target: S. cerevisiae ZWF1 (glucose-6-phosphate dehydrogenase) variant Y40L (mutant 7) (Saccharomyces cerevisiae, UniProt P11412, Y40L); assay: as above; format: biochemical; details: preliminary cofactor phenotype
Chain of S. cerevisiae ZWF1 (glucose-6-phosphate dehydrogenase) variant Y40L (mutant 7) (P11412 whole entry Y40L): as the sequence (P11412 whole entry A51D) above, with Y40L, D51A counted along it
Procedure: as §1, §2, §3

[6] = biological target: S. cerevisiae ZWF1 (glucose-6-phosphate dehydrogenase) variant A24G/T28G (mutant 2) (Saccharomyces cerevisiae, UniProt P11412, A24G/T28G); assay: as above; format: biochemical; details: preliminary cofactor phenotype
Chain of S. cerevisiae ZWF1 (glucose-6-phosphate dehydrogenase) variant A24G/T28G (mutant 2) (P11412 whole entry A24G/T28G): as the sequence (P11412 whole entry A51D) above, with A24G, T28G, D51A counted along it
Procedure: as §1, §2, §3

[7] = biological target: S. cerevisiae ZWF1 (glucose-6-phosphate dehydrogenase) variant A24G (mutant 1) (Saccharomyces cerevisiae, UniProt P11412, A24G); assay: as above; format: biochemical; details: preliminary cofactor phenotype
Chain of S. cerevisiae ZWF1 (glucose-6-phosphate dehydrogenase) variant A24G (mutant 1) (P11412 whole entry A24G): as the sequence (P11412 whole entry A51D) above, with A24G, D51A counted along it
Procedure: as §1, §2, §3

[8] = biological target: S. cerevisiae ZWF1 (glucose-6-phosphate dehydrogenase) variant K46R (mutant 6) (Saccharomyces cerevisiae, UniProt P11412, K46R); assay: as above; format: biochemical; details: preliminary cofactor phenotype
Chain of S. cerevisiae ZWF1 (glucose-6-phosphate dehydrogenase) variant K46R (mutant 6) (P11412 whole entry K46R): as the sequence (P11412 whole entry A51D) above, with K46R, D51A counted along it
Procedure: as §1, §2, §3

[9] = substrate: OC1OC[C@@H](O)[C@H](O)[C@H]1O; assay: purified protein, by the assay type; format: biochemical, Ruminococcus flavefaciens / Piromyces; details: other: xylose 40-500 mM, pH 7.5, about 30° C.
Procedure: Approximately 20 μg of soluble whole cell extract from each transformed cell line was prepared using Y-PER plus reagent as described above was incubated in a solution containing about 100 mM Tris, pH 7.5, 10 mM MgCl2, 0.15 mM NADH (Sigma, St. Louis, Mo.), and 2 U sorbitol dehydrogenase (SDH) (Roche, Indianapolis, Ind.) at about 30° C. […] A Beckman DU-800 spectrophotometer was utilized with an Enzyme Mechanism software package (Beckman Coulter, Inc, Brea, Calif.), and the change in the A340 was monitored for 2-3 minutes.

[10] = substrate: OC1OC[C@@H](O)[C@H](O)[C@H]1O; assay: purified protein, by the assay type; format: biochemical, Ruminococcus flavefaciens / Piromyces; details: other: xylose 40-500 mM, pH 7.5, about 30° C.; remark: listed apart in the source
Description: To generate the chimeric XI-Rp10 gene, the 5′ primer KAS/XI-R-P6-10 and 3′ primer KAS/3-XI-RF-NATIVE were first used to add nucleotides 16-30 from the XI-P gene to the 5′ end of the XI-R gene keeping the remainder of the XI-R gene in-frame. […] Following PCR purification of the resulting XI-Rp6-10 amplified product, 5′ primer KAS/XI-R-P1-10 and either the 3′ primer KAS/3-XI-RF-NATIVE or the 3′ primer KAS/3-XI-RF-NATIVE-HIS oligonucleotides were used to add additional sequences.

[11] = substrate: OC1OC[C@@H](O)[C@H](O)[C@H]1O; assay: cells, lysate or membranes; format: biochemical, Ruminococcus flavefaciens; details: other: xylose about 40 to about 500 mM, pH 7.5, about 30° C.
Procedure: A series of specific point mutations were made to the “hot rod” Ruminococcus xylose isomerase gene using site-directed mutagenesis.
Site directed mutagenesis was performed as follows: About 50 ng of template DNA was added to 1×Pfu Ultra II buffer, 0.3 mM dNTPs, […] of the relevant mutagenesis primers depending on the mutant being constructed and 1 U Pfu Ultra 11 polymerase (Agilent, La Jolla, Calif.) in a 50 μl reaction mix. The “hot rod” Ruminococcus xylose isomerase gene was used as the template DNA for constructing single point mutation variants. Previously engineered mutants sometimes were used as “template” DNA to generate other mutants. Each reaction was PCR cycled as follows: 95° C. 10 minutes followed by 30 rounds of 95° C. for 20 seconds, 55° C. for 30 seconds, and 72° C. for 5 minutes. A final 5 minute extension reaction at 72° C. was also included. Following PCR, 1.5 μl of Dpnl (NEB, Ipswich, Mass.) was added and allowed to digest the reaction mixture for 1 to 1.5 hours at 37° C. 5 μl of this mixture was then used to transform NEB-5a cells (NEB, Ipswich, Mass.) and plated onto LB media with ampicillin (100 μg/ml). (Table below discloses SEQ ID NOS 229-256, respectively, in order of appearance)

[12] = substrate: OC1OC[C@@H](O)[C@H](O)[C@H]1O; assay: purified protein, by the assay type; format: biochemical, Ruminococcus flavefaciens / Piromyces; details: other: xylose 40-500 mM, pH 7.5, about 30° C.; remark: listed apart in the source
Description: Following PCR purification of the resulting XI-Rp6-15 amplified product, 5′ primer KAS/XI-R-P1-15 either 3′ primer KAS/3-XI-RF-NATIVE or 3′ primer KAS/3-XI-RF-NATIVE-HIS oligonucleotides were used to add additional sequences.

Molecule: NC(=O)c1ccc[n+]([C@@H]2O[C@H](COP(=O)(O)OP(=O)(O)OC[C@H]3O[C@@H](n4cnc5c(N)ncnc54)[C@H](OP(=O)(O)O)[C@@H]3O)[C@@H](O)[C@H]2O)c1 [NADP+]
- NADP+ usage [1]: No
- NADP+ usage [2]: Yes
- NADP+ usage [3]: Yes
- NADP+ usage [4]: Yes
- NADP+ usage [5]: Yes
- NADP+ usage [6]: No
- NADP+ usage [7]: Yes
- NADP+ usage [8]: Yes

Molecule: NC(=O)c1ccc[n+]([C@@H]2O[C@H](COP(=O)(O)OP(=O)(O)OC[C@H]3O[C@@H](n4cnc5c(N)ncnc54)[C@H](O)[C@@H]3O)[C@@H](O)[C@H]2O)c1 [NAD+]
- NAD+ usage [1]: Yes
- NAD+ usage [2]: No
- NAD+ usage [3]: No
- NAD+ usage [4]: No
- NAD+ usage [5]: No
- NAD+ usage [6]: No
- NAD+ usage [7]: No
- NAD+ usage [8]: No

B1: Ruminococcus flavefaciens xylose isomerase chimera XI-Rp5 (first 5 amino acids of Piromyces xylose isomerase), SEQ ID NO: 56 (Ruminococcus flavefaciens; … (protein)
chain: MAKEYFSNIGKIQYQGPKSTDPLSFKYYNPEEVINGKTMREHLKFALSWWHTMGGDGTDMFGCGTTDKTWGQSDPAARAKAKVDAAFEIMDKLSIDYYCFHDRDLSPEYGSLKATNDQLDIVTDYIKEKQGDKFKCLWGTAKCFDHPRFMHGAGTSPSADVFAFSAAQIKKALESTVKLGGNGYVFWGGREGYETLLNTNMGLELDNMARLMKMAVEYGRSIGFKGDFYIEPKPKEPTKHQYDFDTATVLGFLRKYGLDKDFKMNIEANHATLAQHTFQHELRVARDNGVFGSIDANQGDVLLGWDTDQFPTNIYDTTMCMYEVIKAGGFTNGGLNFDAKARRGSFTPEDIFYSYIAGMDAFALGFRAALKLIEDGRIDKFVADRYASWNTGIGADIIAGKADFASLEKYALEKGEVTASLSSGRQEMLESIVNNVLFSL
notes: E2 XI (CAB76571.1; MAKEY) on Ruminococcus XI
- Km [9]: 66.5 mM

B2: Ruminococcus flavefaciens xylose isomerase chimera XI-Rp10 (first 10 amino acids of Piromyces xylose isomerase), SEQ ID NO: 58 (Ruminococcus flavefaciens; … (protein)
chain: MAKEYFPQIQQYQGPKSTDPLSFKYYNPEEVINGKTMREHLKFALSWWHTMGGDGTDMFGCGTTDKTWGQSDPAARAKAKVDAAFEIMDKLSIDYYCFHDRDLSPEYGSLKATNDQLDIVTDYIKEKQGDKFKCLWGTAKCFDHPRFMHGAGTSPSADVFAFSAAQIKKALESTVKLGGNGYVFWGGREGYETLLNTNMGLELDNMARLMKMAVEYGRSIGFKGDFYIEPKPKEPTKHQYDFDTATVLGFLRKYGLDKDFKMNIEANHATLAQHTFQHELRVARDNGVFGSIDANQGDVLLGWDTDQFPTNIYDTTMCMYEVIKAGGFTNGGLNFDAKARRGSFTPEDIFYSYIAGMDAFALGFRAALKLIEDGRIDKFVADRYASWNTGIGADIIAGKADFASLEKYALEKGEVTASLSSGRQEMLESIVNNVLFSL
- Km [10]: 75.8 mM

B3: Ruminococcus flavefaciens xylose isomerase (hot rod) variant G179A (Ruminococcus flavefaciens; G179A) (protein)
chain: B2 chain with A2E, K3F, E4F, Y5S, F6N, P7I, Q8G, I9K, Q10I, G179A
notes: expressed in S. cerevisiae, soluble extract
- Km [11]: 83.82 mM

B4: Ruminococcus flavefaciens xylose isomerase chimera XI-Rp15 (first 15 amino acids of Piromyces xylose isomerase), SEQ ID NO: 60 (Ruminococcus flavefaciens; … (protein)
chain: B2 chain with Q11K, Y12I, Q13K, G14F, P15E
- Km [12]: 49.3 mM
